Converted amounts (≈) assume the structure as drawn.
Tests used:
E. faecalis USA01 = assay: MBC test (CLSI), non-VRE E. faecalis isolate
S. aureus ATCC 29213 = assay: ATP release assay (CellTiter-Glo); format: cell-based, Staphylococcus aureus; conditions: at the MIC ([…] μg/ml), 30 min exposure
Source text: The CellTiter-Glo Luminescent Cell Viability Assay (Promega) was utilized to measure the leakage of ATP from bacteria. […] The negative control received 2% DMSO, which represented the final DMSO concentration in each assay. […] Results were expressed as ATP concentration released to the medium (μM).

VRE isolates = assay: MBC test (CLSI), VRE isolates; format: cell-based, Enterococcus spp.; set-up: key: M = many bacteria growing on the plate (too many to count)
Description: There was an obvious reduction in the number of bacteria with increasing concentration, but growth was present compared with no growth for S. aureus. […] Each MBC test was performed in duplicate.

S. pneumoniae strain D39 = assay: Macro-broth dilution time kill studies; format: cell-based, Streptococcus pneumoniae
Description: Bacterial suspensions and working antibiotic stocks were prepared as described above. [For preparing macro-broth dilutions, 20 ml tubes were filled each with 9 mls of 4% LHB:CAMHB. 9 mls of a working antimicrobial stock was diluted 1:2 when added to one of the tubes, and then serial diluted down from a high to low concentration of antimicrobial. 1 ml of S. pneumoniae bacterial suspension was added to the appropriate tubes, including the positive control. […] At every 2-3 hrs during the first 12 hrs of growth and then at 24 hrs and 48 hrs, 50 μL of each bacterial suspension was spread plated onto HBA and incubated at 37° C. with 5% CO2 for 16-24 hrs.]
Cultures were incubated at 37° C. in 5% CO2 with gentle manual tilting every 10 mins for the first 12 hrs. Viable counts from 50 μL aliquots of each concentration were read following incubation at 37° C. in 5% CO2 for 24 hrs. The pH of each sample was measured at specific time points using pH indicator strips. Confluent growth was defined when more than 1000 colonies were counted per plate. A bactericidal effect was defined as a 3-log 10-unit reduction (99.9%) of the original cell suspension determined at 24 hrs for each concentration.

S. aureus KC01 = assay: Kill kinetics assay, S. aureus KC01; format: cell-based, Staphylococcus aureus
Description: S. aureus KC01 and E. faecalis USA01, not determined to be MRSA or VRE, respectively, were grown overnight on Columbia SBA at 37° C. A few colonies of bacteria were then suspended in CAMHB (cation-adjusted Mueller Hinton broth) and adjusted to OD600 of 0.08 to 0.10. The bacterial suspension was diluted 1:10. […] The tubes were incubated at 37° C., with constant shaking. In order to determine the number of viable bacteria present at various time points, a 100 μL aliquot was removed from each tube and diluted. Then, 100 μL of each dilution were spread onto colony count agar, in duplicate, and incubated for 48 h at 37° C. After 24 h the numbers of colonies present on each plate were counted and therefore the number of viable bacteria present in the original suspension enumerated. Plates were re-checked after 48 hours.

[1] = tested on: vancomycin-resistant Enterococcus spp. (VRE); assay: Minimum inhibitory concentration assay (CLSI), VRE isolates; format: cell-based
Description: (§1) Minimum inhibitory concentration tests were performed according to CLSI Standards (CLSI 2008). […] The solutions were then serially diluted across the row, leaving 2 columns for positive and negative controls. A bacterial suspension was prepared by adding fresh colonies obtained from an overnight culture on Sheep Blood Agar (SBA) to a 9.1 g/L saline solution. This suspension was adjusted to a concentration of between 4×10^8 and 5×10^8 CFU/mL. Concentration of the suspension was determined by measuring optical density (OD) using a spectrophotometer at a wavelength of 600 nm where the correct concentration was determined to have an optical density of between 1.00 and 1.20. One milliliter of this suspension was added to 9 mL of saline before being added to all wells, excluding the negative control wells, in 10 μL volumes giving a final concentration of between 4×10^5 and 5×10^5 CFU/mL in each well. The tests were then incubated for 24 hours at 37° C. and then assessed both visually and using OD readings from a microplate reader at a wavelength of 600 nm. These tests were performed in duplicate but repeated if discrepancies were observed.
(§2) The minimum inhibitory concentration (MIC) was determined to be the lowest concentration of antibiotic that prevented growth of bacteria both visually and using OD readings. […]

S. aureus ATCC 49775 = assay: Time-kill assays; format: cell-based, Staphylococcus aureus
Description: Bactericidal activity in macrodilution assays was identified as a 3-log10 decrease from the initial inoculum size. Bacteria were cultured overnight at 37° C. on SBA. Colonies were suspended in broth and the turbidity was adjusted to a 0.5 McFarland standard to obtain a bacterial suspension of ˜10^5-CFU/ml. Bacterial suspensions were incubated at 37° C. with shaking. Aliquots were removed at 0-, 1-, 2-, 4-, 8-, 12-, and 24-h after antimicrobial addition, diluted, plated onto SBA and incubated for 48-h at 37° C. for viable count determination. Turbidimetric growth curves for S. aureus were obtained for Microtiter plate assays by monitoring optical density changes using a Bio-Rad Benchmark Plus microplate spectrophotometer at 600 nm. Optical densities were measured at 0-, 1-, 2-, 4-, 8-, 12, and 24-h after antimicrobial addition.

Streptococcus pneumoniae = assay: Minimum inhibitory concentration assay (CLSI), Str. pneumoniae isolates; format: cell-based
Description: as §1, §2

N=C(N/N=C/c1ccc(Cl)cc1)N/N=C/c1ccc(Cl)cc1 [NCL812, 1,2-bis[(E)-(4-chlorophenyl)methylideneamino]guanidine]
MBC test: Number of Bacteria Growing after 24 hours per ml of sample (E. faecalis USA01; 4 μg/ml): 488 CFU/ml | MBC test: growth on Sheep Blood Agar (E. faecalis USA01; 4 μg/ml): + | MBC test: growth on Sheep Blood Agar (E. faecalis USA01; 8 μg/ml): + | MBC test: growth on Sheep Blood Agar (E. faecalis USA01; 16 μg/ml): + | MBC test: Number of Bacteria Growing after 24 hours per ml of sample (E. faecalis USA01; 32 μg/ml): 7 CFU/ml | MBC test: growth on Sheep Blood Agar (E. faecalis USA01; 32 μg/ml): + | MBC test: Number of Bacteria Growing after 24 hours per ml of sample (E. faecalis USA01; 64 μg/ml): 1 CFU/ml | MBC test: growth on Sheep Blood Agar (E. faecalis USA01; 64 μg/ml): + | MBC test: growth on Sheep Blood Agar (E. faecalis USA01; […]): + | maximal release of ATP (S. aureus ATCC 29213): 0.33 µM | MBC test: bacteria growing after 24 hours per ml of sample (VRE isolates; VRE 12c, 64 μg/ml): M | MBC test: bacteria growing after 24 hours per ml of sample (VRE isolates; VRE 12c, […]): M | MBC test: bacteria growing after 24 hours per ml of sample (VRE isolates; VRE 14t, […]): M | MBC test: bacteria growing after 24 hours per ml of sample (VRE isolates; VRE 16c(dc), 64 μg/ml): M | MBC test: bacteria growing after 24 hours per ml of sample (VRE isolates; VRE 16c(dc), […]): M | MBC test: bacteria growing after 24 hours per ml of sample (VRE isolates; VRE 16c, 64 μg/ml): M | MBC test: bacteria growing after 24 hours per ml of sample (VRE isolates; VRE 16c, […]): M | MBC test: bacteria growing after 24 hours per ml of sample (VRE isolates; VRE 19t, […]): M | MBC test: bacteria growing after 24 hours per ml of sample (VRE isolates; VRE 23c, 64 μg/ml): M | MBC test: bacteria growing after 24 hours per ml of sample (VRE isolates; VRE 23c, […]): M | MBC test: bacteria growing after 24 hours per ml of sample (VRE isolates; VRE 25c, 64 μg/ml): M | MBC test: bacteria growing after 24 hours per ml of sample (VRE isolates; VRE 25c, […]): M | MBC test: bacteria growing after 24 hours per ml of sample (VRE isolates; VRE 26c(dc), 64 μg/ml): M | MBC test: bacteria growing after 24 hours per ml of sample (VRE isolates; VRE 26c(dc), […]): M | growth (S. pneumoniae strain D39; 2 μg/ml NCL812): Consistent confluent growth | appeared to be inactivated at (S. pneumoniae strain D39; 4 μg/ml and 8 μg/ml, post-exposure): 11 h | time to eliminating bacterial growth (S. pneumoniae strain D39; between 16 μg/ml and 64 μg/ml NCL812): ≤ 8 h | reduction in bacterial numbers from initial numbers (S. aureus KC01; 2 h time point): ≥ 2.5 log10 | reduction in bacterial numbers in comparison to the control (S. aureus KC01; 2 h time point): > 3 log10 | reduction in bacterial numbers (S. aureus KC01; 6 h incubation): ≥ 2 log10 | numbers of bacteria compared to the control (S. aureus KC01; after 24 h): not significantly different to the control | MIC50 [1]: 4 µg/mL (≈ 12 µM) | MIC90 [1]: 4 µg/mL (≈ 12 µM) | growth in microdilution assay (S. aureus ATCC 49775; 1× and 4× the MIC, up to 24-h): no visible bacterial growth | remained bactericidal until (S. aureus ATCC 49775; 10-ml macrodilution, 1× and 4× the MIC, after antimicrobial addition): 8 to 12 h | bacterial regrowth observed at (S. aureus ATCC 49775; after antimicrobial addition): 12 h | susceptibility of test bacteria after time-kill exposure (S. aureus ATCC 49775; following harvesting, washing and MIC testing): remained susceptible | MIC50 (Streptococcus pneumoniae): 4 µg/mL (≈ 12 µM) | MIC90 (Streptococcus pneumoniae): 4 µg/mL (≈ 12 µM)

From patent US9539223B2, “Methods for treating bacterial infections” (Neoculi Pty Ltd., priority 2013, dated 2017)
